{
  "source": "paper PMC6768323",
  "about": "“Adverse Maternal, Fetal, and Postnatal Effects of Hexafluoropropylene Oxide Dimer Acid (GenX) from Oral Gestational Exposure in Sprague-Dawley Rats” (Environmental Health Perspectives, 2019)",
  "assay": "HFPO-DA concentrations in maternal serum and fetal plasma",
  "assay_type": "in vivo, Sprague-Dawley rats",
  "method": "Maternal sera from all three blocks and fetal plasma from the third block were analyzed for HFPO-DA concentrations similar to previously reported methods ([McCord et al. 2018]; [Reiner et al. 2009]; [Rushing et al. 2017]). Serum or plasma samples ( 25μL ) were denatured using 0.1M formic acid (FA) followed by a cold ( −20°C ) acetonitrile (ACN) protein crash. The volumes of FA and ACN varied based on the anticipated concentrations of HFPO-DA in the sample ( 0–100 ng HFPO-DA/mL=100μL FA +0.5mL ACN; 100–5,000 ng HFPO-DA/mL=100μL FA +1.0mL ACN; 5,000–200,000 ng HFPO-DA/mL=1.0mL FA added, then 100-μL subsamples removed and crashed with 900μL cold ACN). Samples were vortex mixed after FA and ACN additions then centrifuged at 10,000×g for 5 min and the supernatant removed. Sample extracts were separated using a Waters ACQUITY ultra performance liquid chromatograph (UPLC) (Waters Corporation) fitted with a Waters ACQUITY UPLC BEH C18 column ( 2.1mm×50mm; 1.7μm; 130 Å ). Detection was performed using a Waters Quattro Premier XE tandem quadrupole mass spectrometer in negative ionization mode. A stable isotope of HFPO-DA ( C313 , Wellington Laboratories) was used as an internal standard for quantitation. Separate calibration curves were prepared for the ranges 0–100 ng/mL , 100–5,000 ng/mL , and 5,000–200,000 ng/mL to account for expected concentration differences between control, offspring (fetus/pup), and dam concentrations across the dose range tested.\nSerum HFPO-DA concentrations in the mother and the fetus were analyzed as a function of oral dose administered to the mother. We utilized nonlinear regression (exponential one-phase association) to describe the increase and saturation of serum HFPO-DA concentrations across the full oral dose range ( 1–500mg/kg ) for maternal serum. Fetal plasma HFPO-DA concentrations were only analyzed in the low-dose range ( 1–30mg/kg ), which was better described using a linear uptake model. We compared the slopes of the low-dose linear regressions for maternal serum and fetal plasma HFPO-DA concentrations using GraphPad Prism.",
  "note": "Values joined by “and” are separate entries in the source; they are usually repeats but may differ in a detail not shown here. Equal values may be shown once.",
  "data": [
    {"smiles": "O=C(O)C(F)(OC(F)(F)C(F)(F)C(F)(F)F)C(F)(F)F", "note": "(centres unmarked) [HFPO-DA, Hexafluoropropylene oxide dimer acid]", "values": [
      {"measurement": "fetal plasma HFPO-DA slope per 1-mg/kg increase in oral maternal dose", "setting": "1-30 mg/kg, linear regression", "value": "0.12 µg/mL and 0.12 ± 0.0094 µg/mL"},
      {"measurement": "fetal plasma y-intercept", "setting": "1-30 mg/kg, linear regression", "value": "0.17±0.13"},
      {"measurement": "maternal serum HFPO-DA slope per 1-mg/kg increase in oral maternal dose", "setting": "1-30 mg/kg, linear regression", "value": "0.46 µg/mL and 0.46 ± 0.06 µg/mL"},
      {"measurement": "maternal serum y-intercept", "setting": "1-30 mg/kg, linear regression", "value": "0.032±0.80"},
      {"measurement": "plateau of maternal serum HFPO-DA, exponential one-phase association", "setting": "1-500 mg/kg", "value": "112 ± 15", "unit": "µg/mL"}
    ]}
  ]
}
